Test results reported in patent US11053204B2, “Pyrimidinyloxy benzene derivatives as herbicides” (FMC Corporation, priority 2015, dated 2021).

Legend:
Format in all cases: in vivo
[1] = system: blackgrass (Alopecurus myosuroides); assay: Test A postemergence, visual injury rating
Outline: (§1)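 Visual 0–100 rating (100 = complete control) taken about 10 d post-treatment relative to untreated checks. Preemergence: directed soil spray on sown loam/sand pots. Postemergence: seedlings 2–10 cm, 1–2 leaf. Non-phytotoxic solvent formulation with surfactant.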

kochia (Kochia scoparia) [2] = assay: Test A postemergence, visual injury rating
Outline: as §1

[3] = system: ragweed (common ragweed, Ambrosia elatior); assay: Test A postemergence, visual injury rating
Outline: as §1

corn (Zea mays) = assay: Test A postemergence, visual injury rating
Outline: as §1

[4] = system: wheat (Triticum aestivum); assay: Test A postemergence, visual injury rating
Outline: as §1

[5] = system: pigweed (Amaranthus retroflexus); assay: Test A postemergence, visual injury rating
Outline: as §1

[6] = system: barnyardgrass (Echinochloa crus-galli); assay: Test A postemergence, visual injury rating; conditions: 0 to 100 scale, 0 is no effect, 100 is complete control, approximately 10 days
Outline: as §1

[7] = system: Italian ryegrass (Lolium multiflorum); assay: Test A postemergence, visual injury rating
Outline: as §1

[8] = system: galium (catchweed bedstraw, Galium aparine); assay: Test A postemergence, visual injury rating
Outline: as §1

[9] = system: giant foxtail (Setaria faberii); assay: Test A postemergence, visual injury rating
Outline: as §1

kochia (Kochia scoparia) [10] = assay: Test A preemergence, visual injury rating
Outline: as §1

[11] = system: ragweed (common ragweed, Ambrosia elatior); assay: Test A preemergence, visual injury rating
Outline: as §1

[12] = system: pigweed (Amaranthus retroflexus); assay: Test A preemergence, visual injury rating
Outline: as §1

[13] = system: barnyardgrass (Echinochloa crus-galli); assay: Test A preemergence, visual injury rating
Outline: as §1

[14] = system: Italian ryegrass (Lolium multiflorum); assay: Test A preemergence, visual injury rating
Outline: as §1

[15] = system: giant foxtail (Setaria faberii); assay: Test A preemergence, visual injury rating
Outline: as §1

rice (Oryza sativa) = assay: Test B flooded paddy test, plant response rating; conditions: 250 g ai/ha; Flood; scale of 0 to 100 where 0 is no effect and 100 is complete control; 13 to 15 days
Outline: (§2)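 Pots were flooded to 3 cm above the soil surface at treatment, compound applied directly to the paddy water, and that depth held throughout. Plants were kept in a greenhouse for 13 to 15 days, then visually rated against untreated controls.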

[16] = system: barnyardgrass (Echinochloa crus-galli); assay: Test B flooded paddy test, plant response rating; conditions: 250 g ai/ha; Flood; scale of 0 to 100 where 0 is no effect and 100 is complete control; 13 to 15 days
Outline: as §2

[17] = system: sedge, umbrella (small-flower umbrella sedge, Cyperus difformis); assay: Test B flooded paddy test, plant response rating; conditions: 250 g ai/ha; Flood; scale of 0 to 100 where 0 is no effect and 100 is complete control; 13 to 15 days
Outline: as §2

[18] = system: ducksalad (Heteranthera limosa); assay: Test B flooded paddy test, plant response rating; conditions: 250 g ai/ha; Flood; scale of 0 to 100 where 0 is no effect and 100 is complete control; 13 to 15 days
Outline: as §2

[19] = 31 g ai/ha, 0 to 100 scale, 0 is no effect, 100 is complete control, approximately 10 days
[20] = 125 g ai/ha, 0 to 100 scale, 0 is no effect, 100 is complete control, approximately 10 days
[21] = 31 g ai/ha, 0 to 100 scale, 0 no effect, 100 complete control
[22] = 125 g ai/ha, 0 to 100 scale (0 no effect, 100 complete control)
[23] = 31 g ai/ha, 0 to 100 scale (0 no effect, 100 complete control)

Compound | Blackgrass plant response rating [1, 20] | Kochia plant response rating (kochia (Kochia scoparia) [2]; [20]) | Ragweed plant response rating [3, 20] | Corn plant response rating (corn (Zea mays); [20]) | Wheat plant response rating [4, 20] | Pigweed plant response rating [5, 20] | Barnyardgrass plant response rating ([6]; 31 g ai/ha) | Barnyardgrass plant response rating ([6]; 125 g ai/ha) | Ryegrass, Italian plant response rating [7, 20] | Galium plant response rating [8, 20] | Foxtail, Giant plant response rating [9, 20] | Plant response rating, Kochia (kochia (Kochia scoparia) [10]; [21]) | Plant response rating, Kochia (kochia (Kochia scoparia) [10]; [22]) | Plant response rating, Ragweed [11, 21] | Plant response rating, Ragweed [11, 22] | Plant response rating, Pigweed [12, 21] | Plant response rating, Pigweed [12, 22] | Plant response rating, Barnyardgrass [13, 21] | Plant response rating, Barnyardgrass [13, 22] | Plant response rating, Ryegrass, Italian [14, 21] | further results
CN(CCCC(F)(F)F)c1c(C#N)cccc1Oc1ncc(Cl)cn1 [Compound 126] | 0 | 0 | 0 | 0 | 0 | 10 | 0 | 0 | 0 | 0 | 0 | 0 | 0 | 0 | 0 | 0 | 0 | 0 | 0 | 0 | Blackgrass plant response rating [1, 19]: 0; Kochia plant response rating (kochia (Kochia scoparia) [2]; [19]): 0; Ragweed plant response rating [3, 19]: 0; Corn plant response rating (corn (Zea mays); [19]): 0; Wheat plant response rating [4, 19]: 0; Pigweed plant response rating [5, 19]: 0; Ryegrass, Italian plant response rating [7, 19]: 0; Galium plant response rating [8, 19]: 0; Foxtail, Giant plant response rating [9, 19]: 0; Plant response rating, Ryegrass, Italian [14, 22]: 0; Plant response rating, Foxtail, Giant [15, 21]: 0; Plant response rating, Foxtail, Giant [15, 22]: 0; Plant response rating, Rice (rice (Oryza sativa)): 0; Plant response rating, Barnyardgrass [16]: 90; Plant response rating, Sedge, Umbrella [17]: 0; Plant response rating, Ducksalad [18]: 0
CCCCC(C#N)c1ccccc1Oc1ncc(Cl)cn1 (stereo not drawn) [Compound 129] | 80 | 100 | 0 | 20 | 10 | 70 | 20 | 100 | 60 | 90 | 100 | 30 | 100 | 0 | 0 | 90 | 100 | 70 | 100 | 20 | Blackgrass plant response rating [1, 23]: 20; Kochia plant response rating (kochia (Kochia scoparia) [2]; [23]): 40; Ragweed plant response rating [3, 23]: 0; Corn plant response rating (corn (Zea mays); [23]): 20; Wheat plant response rating [4, 23]: 0; Pigweed plant response rating [5, 23]: 20; Ryegrass, Italian plant response rating [7, 23]: 0; Galium plant response rating [8, 23]: 30; Foxtail, Giant plant response rating [9, 23]: 20; Plant response rating, Ryegrass, Italian [14, 22]: 60; Plant response rating, Foxtail, Giant [15, 21]: 100; Plant response rating, Foxtail, Giant [15, 22]: 100; Plant response rating, Rice (rice (Oryza sativa)): 40; Plant response rating, Barnyardgrass [16]: 45; Plant response rating, Sedge, Umbrella [17]: 80; Plant response rating, Ducksalad [18]: 90
N#Cc1cccc(Oc2ncc(Cl)cn2)c1COCC(F)(F)F [Compound 131] | 0 | 90 | 0 | 30 | 20 | 80 | 0 | 10 | 20 | 50 | 20 | 10 | 100 | 0 | 0 | 90 | 100 | 0 | 100 | 0 | Blackgrass plant response rating [1, 23]: 0; Kochia plant response rating (kochia (Kochia scoparia) [2]; [23]): 40; Ragweed plant response rating [3, 23]: 0; Corn plant response rating (corn (Zea mays); [23]): 20; Wheat plant response rating [4, 23]: 0; Pigweed plant response rating [5, 23]: 50; Ryegrass, Italian plant response rating [7, 23]: 0; Galium plant response rating [8, 23]: 20; Foxtail, Giant plant response rating [9, 23]: 0; Plant response rating, Ryegrass, Italian [14, 22]: 20; Plant response rating, Foxtail, Giant [15, 21]: 0; Plant response rating, Foxtail, Giant [15, 22]: 90; Plant response rating, Rice (rice (Oryza sativa)): 15; Plant response rating, Barnyardgrass [16]: 15; Plant response rating, Sedge, Umbrella [17]: 90; Plant response rating, Ducksalad [18]: 80
N#Cc1cccc(Oc2ncc(Cl)cn2)c1COCC(F)(F)C(F)(F)F [Compound 132] | 30 | 70 | 0 | 30 | 20 | 90 | 30 | 50 | 0 | 60 | 50 | 10 | 60 | 0 | 0 | 70 | 100 | 30 | 100 | 0 | Blackgrass plant response rating [1, 23]: 0; Kochia plant response rating (kochia (Kochia scoparia) [2]; [23]): 40; Ragweed plant response rating [3, 23]: 0; Corn plant response rating (corn (Zea mays); [23]): 20; Wheat plant response rating [4, 23]: 0; Pigweed plant response rating [5, 23]: 60; Ryegrass, Italian plant response rating [7, 23]: 0; Galium plant response rating [8, 23]: 20; Foxtail, Giant plant response rating [9, 23]: 30; Plant response rating, Ryegrass, Italian [14, 22]: 30; Plant response rating, Foxtail, Giant [15, 21]: 40; Plant response rating, Foxtail, Giant [15, 22]: 100; Plant response rating, Rice (rice (Oryza sativa)): 45; Plant response rating, Barnyardgrass [16]: 45; Plant response rating, Sedge, Umbrella [17]: 80; Plant response rating, Ducksalad [18]: 90
N#Cc1cccc(Oc2ncc(Cl)cn2)c1C(=O)CCCC(F)(F)F [Compound 133] | 0 | 20 | 0 | 20 | 0 | 50 | 10 | 30 | 0 | 50 | 30 | 0 | 10 | 0 | 0 | 70 | 100 | 0 | 30 | 0 | Blackgrass plant response rating [1, 23]: 0; Kochia plant response rating (kochia (Kochia scoparia) [2]; [23]): 0; Ragweed plant response rating [3, 23]: 0; Corn plant response rating (corn (Zea mays); [23]): 0; Wheat plant response rating [4, 23]: 0; Pigweed plant response rating [5, 23]: 30; Ryegrass, Italian plant response rating [7, 23]: 0; Galium plant response rating [8, 23]: 30; Foxtail, Giant plant response rating [9, 23]: 10; Plant response rating, Ryegrass, Italian [14, 22]: 0; Plant response rating, Foxtail, Giant [15, 21]: 0; Plant response rating, Foxtail, Giant [15, 22]: 90; Plant response rating, Rice (rice (Oryza sativa)): 30; Plant response rating, Barnyardgrass [16]: 0; Plant response rating, Sedge, Umbrella [17]: 0; Plant response rating, Ducksalad [18]: 0
